Data as given in patent US20230145868A1, “UREA INHIBITORS OF MICRO-RNA” (Board of Regents, The University of Texas System, priority 2020, published 2023).
Where two headings read alike, the source gives them in different places.

How the values were obtained:
[1] = test system: miR-10b; assay: Luciferase reporter assay of miR-10b inhibition, MCF7 cells; type: cell-based; details: Homo sapiens, MCF7, 48 h
From the text: To identify miR-10b inhibitors, a luciferase reporter system was designed with complementary oligonucleotides for miR-10b.This luciferase reporter would repress Renilla luciferase signal in the presence of a functional mature miR-10b. However, in the presence of a small molecule that can inhibit mature miR-10b expression or affect its downstream function, the luciferase expression is restored again.
The PsiCHECK™-2 luciferase reporter vector was acquired from Promega™, Complementary oligonucleotides for hsa-miR-10b were designed based on the mature miRNA sequence and obtained from Thermo Fisher Scientific. In the design of the microRNA target sequence, several base pairs were added to have two different restriction sites recognizable by the enzyme SgfI at one side, and PmeI on the other (present in the vector as well). In addition, the insert was designed with a restriction site for SacI enzyme in order to have an additional site to digest the vector when monitoring colonies for the presence/absence of the insert. The designed oligonucleotides were annealed as follows: Complementary strands were mixed at a 1:1 molar ratio in a micro centrifuge tube. The mixture was diluted to a final concentration of 1 pmol/μl with a buffer solution of 10 mM Tris, 1 mM EDTA, and 50 mM NaCl (pH 8.0). Mixes were incubated at 95° C. for 5 min, and then the heat was reduced gradually for 70 min, until reaching 4° C. The annealed oligonucleotides were digested along with the PsiCHECK™2 vector with SgfI and PmeI and ligated at the 3′-UTR (downstream) of the Renilla luciferase reporter gene in the PsiCHECK™-2vector. Insert sequences were further confirmed in two ways: enzymatic digestion and sequencing.
MCF7 cells were seeded 24 h prior to transfection in 96 well plates (2.0×10^4 cells/well). For testing the sensitivity of the assay, antagomiRs and pre-miRs against miR-10b were used at a final concentration of 100 nM. For testing small molecule miRNA inhibitors, the compounds of interest were added to a final concentration of 10 μM. The assay was done in MCF7 or MDA-MB-231 cells at approximately 60% confluence using Lipofectamine in Opti-Mem media with the final vector concentration of 250 ng/mL. All transfections were performed in triplicate for statistical analysis. The cells were incubated at 37° C. for 6 h, followed by replacement of the transfected media with fresh media. After 48 h incubation, the media was removed, and cells were lysed and assayed with a Dual Luciferase Assay Kit (Promega) using a Vi-Tech luminometer. The ratio of Renilla to firefly luciferase expression was calculated for each of the triplicates.

[2] = test system: U251 cell line; assay: Annexin V/PI apoptosis assay by flow cytometry, U251; type: cell-based, human; details: 48 h
Experimental: (§1) In 6-well plates, 1×10^5 cells/mL were added into each well. After 24 h, sequential concentrations of DMSO and 4 based were administered and the plates were incubated for 48 h. The supernatant and adherent cells were collected and centrifugated. Each dose was done in triplicate, with each sample composing two wells. For apoptosis analysis, the supernatant was discarded after centrifugation and the pellet washed with PBS twice. Then, BD Annexin V-FITC/PI used to stain the cells for analysis via flow cytometry on the Gallios machine. For cell cycle analysis, after washing with PBS, cells were fixed with ethanol and incubated. They, were treated with RNase enzyme and analyzed.

[3] = test system: miR-10b; assay: qRT-PCR of miR-10b in cerebral organoids co-cultured with brain cancer cells; type: cell-based, human; details: 10 μM, 48 h
From the text: For co-culturing with cerebral organoids, the brain cancer cell lines U251 and LN229 were transduced with an RFP lentiviral vector expressing mCherry and luciferase, and sorted twice via an Aria Influx Cell Sorter.
Human induced pluripotent stem cell (iPSC) derived cerebral organoids were obtained, courtesy of Dr. Sanjay Singh and Dr. Frederick Lang in the Department of Neurosurgery at MD Anderson Cancer Center. Organoids were maintained in a specialized neural based media on a shaker inside a 37° C. incubator. After maturation, organoids were moved to 24-well ultra-low attachment plates, and individually co-cultured with 5×10^5−1×10^6 cells from brain cancer cell lines for approximately 48-72 h, until RFP signal was clear on the surface of the organoid, indicating cell attachment. Organoids were then moved to 6 well plates and grouped into triplicates within the well. The treatment regimen of control, and 4 was started, at an analogous schedule to in vitro experiments. For fixation and embedding for in situ hybridization, the organoids were processed using 4% PFA and placed in OCT in −80° C. for sectioning.

[4] = test system: U251 brain cancer cell line; assay: Cell morphology; type: cell-based, human; details: over the course of 48 h
[5] = Microsomal stability assay, rat; type: in vitro ADME; details: 1 μM test compound, unit printed in b356 only
Experimental: The liver microsomal incubation mixture was composed of liver microsomes (with a concentration of 0.5 mg microsomal protein/ml), the test compound (1 μM), MgCl2 (3 mM), EDTA (1 mM) in potassium phosphate buffer (100 mM, pH 7.4). Control substrates used were Midazolam and Ketanserin. The reaction was initiated with the addition of an NADPH regeneration solution (1.3 mM NADPH) and maintained at 37° C. with shaking. At five sequential time points ranging from 0 to 45 min, aliquots of the mixture (50 μL) were removed and quenched with acetonitrile (100 μL) containing an internal standard control (imipramine) Samples were analyzed after vortexing and centrifugation by liquid chromatography-mass spectrometry (LC-MS/MS). The in vitro t1/2 was then calculated and clearance followed literature.

[6] = test system: U251 brain cancer cell line; assay: Cell cycle analysis via flow cytometry; type: cell-based, human; details: 5 μM
Experimental: as §1

[7] = test system: Drosha; assay: Western blot, Drosha expression; type: cell-based, human; details: AsPC1, AGS, U251, LN229
Experimental: (§2) Proteins are collected from cultured cells and lysed with 10× Lysis Buffer (Cell Signaling) freshly supplemented with a complete protease inhibitor cocktail and phosphatase inhibitors (Sigma). Bradford assay is used to measure protein concentration. Proteins are separated by polyacrylamide gel (Bio-rad) electrophoresis and were transferred to a 0.2 μm nitrocellulose membrane (Bio-rad). Quantification of protein expression was conducted using the image analysis software ImageJ.

[8] = test system: VEGF; assay: Western blot, VEGF expression; type: cell-based, human; details: LN229 and U251 brain cancer cell lines
Experimental: as §2

[9] = Table 6, MCF7, second biological replicant, 10 μM compound, mean of triplicate, read-out: n-fold increase in luciferase expression, Mean
[10] = Table 6, MCF7, second biological replicant, 10 μM compound, replicate #1, read-out: n-fold increase in luciferase expression, #1
[11] = Table 6, MCF7, second biological replicant, 10 μM compound, replicate #2, read-out: n-fold increase in luciferase expression, #2
[12] = Table 6, MCF7, second biological replicant, 10 μM compound, replicate #3, read-out: n-fold increase in luciferase expression, #3
[13] = rat, liver microsomes, pH 7.4, rat liver microsomes

## Cc1ccc(F)c(NC(=O)Nc2ccc(-c3cncnc3)cc2)c1 [Example 2, 1-(2-fluoro-5-methylphenyl)-3-(4-(pyrimidin-5-yl)phenyl)urea]
[1]; Table 3, MCF7, 10 μM compound, vs negative control (DMSO), mean of triplicate, read-out: n-fold increase in luciferase expression, Mean
  fold induction at 10 µM: 2.19
[1]; Table 3, MCF7, 10 μM compound, vs negative control (DMSO), replicate #1, read-out: n-fold increase in luciferase expression, #1
  fold induction at 10 µM: 2.75
[1]; Table 3, MCF7, 10 μM compound, vs negative control (DMSO), replicate #2, read-out: n-fold increase in luciferase expression, #2
  fold induction at 10 µM: 1.78
[1]; Table 3, MCF7, 10 μM compound, vs negative control (DMSO), replicate #3, read-out: n-fold increase in luciferase expression, #3
  fold induction at 10 µM: 2.05
[1]; [9]
  fold induction at 10 µM: 2.44
[1]; [10]
  fold induction at 10 µM: 2.51
[1]; [11]
  fold induction at 10 µM: 2.84
[1]; [12]
  fold induction at 10 µM: 1.96

## Cc1ccc(F)c(NC(=O)Nc2ccc(-c3cccc4cn[nH]c34)cc2)c1 [Example 4, 1-(4-(1H-indazol-7-yl)phenyl)-3-(2-fluoro-5-methylphenyl)urea]
[2]; 5 μM
  increase in total apoptotic cells compared to control: approximately 4.5 fold
[2]; 10 μM
  total apoptotic cells at 10 μM compared with 5 μM: approximately the same
[3]; cerebral organoids co-cultured with LN229
  miR-10b levels (qRT-PCR): Significant downregulation of miR-10b
[3]; cerebral organoids co-cultured with U251
  miR-10b levels (qRT-PCR): Significant downregulation of miR-10b
[1]; Table 4, MCF7, 10 μM compound, vs negative control (DMSO), mean of triplicate, read-out: n-fold increase in luciferase expression, Mean
  fold induction at 10 µM: 2.71
[1]; Table 4, MCF7, 10 μM compound, vs negative control (DMSO), replicate #1, read-out: n-fold increase in luciferase expression, #1
  fold induction at 10 µM: 1.95
[1]; Table 4, MCF7, 10 μM compound, vs negative control (DMSO), replicate #2, read-out: n-fold increase in luciferase expression, #2
  fold induction at 10 µM: 3.8
[1]; Table 4, MCF7, 10 μM compound, vs negative control (DMSO), replicate #3, read-out: n-fold increase in luciferase expression, #3
  fold induction at 10 µM: 2.39
[1]; [9]
  fold induction at 10 µM: 2.54
[1]; [10]
  fold induction at 10 µM: 4.28
[1]; [11]
  fold induction at 10 µM: 2.09
[1]; [12]
  fold induction at 10 µM: 1.24
[4]
  morphology of the cells: significant change in the morphology
[5]; rat liver microsomes
  CLint: 41.1 mL/min/kg
  Half-life: 1.01 h
[5]; [13]
  CLint scaled at 1 μM: 41 mL/min/kg
  half-life at 1 μM: 1 h
[6]
  cell cycle phase distribution: clear increase shown at the G2/M phase
[7]
  Drosha expression (Western blot): little to no variation
[8]
  VEGF expression (Western blot): low to very slight variations
